Reference: PubChem BioAssay AID1963833 (Molecular Pharmacology Branch, DTP, NCI, 2024)

Tested on: 883617-216-R-J1-PDC complex spheroid viability
Test: Anticancer human tumor 883617-216-R-J1-PDC patient-derived bladder carcinoma cell line growth inhibition [POLQ]
Details: for IC50: curve of first compound; for viability, T/C: stronger effect = lower value; active = viability on the fitted dose curve at most 10% of control; inactive = the rest
Procedure: Multicellular complex tumor spheroid response to Polymerase (POL) inhibitors (novobiocin, ART-558, RP6685) in combination with a variety of drugs and investigational agents in selected tumor cell lines
The POL inhibitors (novobiocin, ART-558, and RP6685) were evaluated both individually and in combination with standard of care and investigational anticancer small molecules within a complex spheroid model of solid tumors. . Complex spheroids include a stromal component modeled by human endothelial cells (HUVEC) and fibroblasts modeled by human mesenchymal stem cells (MSCs). The concentration ranges selected for each drug and investigational agent were based upon clinically achievable concentrations if the clinical Cmax of the agent was known.
Compounds. The drugs and investigational agents: novobiocin (NSC847541), ART-558 (NSC835418), RP-6685 (NSC848927), peposertib (NSC802822), ceralasertib (NSC780249), elimusertib (NSC800525), camonsertib (NSC841442), AZD-1390 (NSC803789), olaparib (NSC753686), talazoparib (NSC767125), rucaparib (NSC756644), sotorasib (NSC818433), MRTX-1133 (NSC836407), SN-38 (NSC673596), topotecan (NSC609699), epotoside (NSC141540), doxorubicin (NSC123127), gemcitabine (NSC613327), 5-fluorouracil (NSC19893), paclitaxel (NSC125973), vemurafenib (NSC761431), MSA-2 (NSC828583), SN-011 (NSC837082), adavosertib (NSC754352), prexasertib (NSC758257), carboplatin (NSC241240) and oxaliplatin (NSC266046), were obtained from the National Cancer Institute (NCI) Developmental Therapeutics Program Chemical Repository (21). The FDA-approved anticancer drug set is available from the Developmental Therapeutics Program at https://dtp.cancer.gov/organization/dscb/obtaining/. […] The stock solutions were prepared in dimethyl sulfoxide (DMSO, Sigma-Aldrich, St. Louis, MO, cat. D2650), except for the platinum compounds which were prepared in saline (Quality Biological, Gaithersburg, MD, cat. 114-055-101), at 800-fold the tested concentration and stored at -70 degrees C prior to their use. All drugs and investigational agents were tested over a range starting from a high concentration at or near the clinical Cmax and decreasing in half-log increments. If the clinical Cmax for an agent had not been determined, the highest concentration tested was 10 microM, except for SN-38, which was tested at a high concentration of 1 microM.
Cell Culture. All cells were maintained in an incubator at 37 degrees C and 5% CO2 with 95% humidity. The PDC lines were cultured according to standard operating procedures established by the NCI PDMR (https://pdmr.cancer.gov). Table 3 of the manuscript, lists the cell lines along with the number of the three cell types plated to form the mct-spheroids and media for tumor cell growth. After thawing, all PDC lines, except 997537-175-T-J1-PDC and 415267-285-R-J2-PDC, were cultured in Matrigel-coated flasks prepared with a working solution of 1X Ham's F-12 nutrient mix, without supplementation (Thermo Fisher Scientific, cat. 11765054), 100 U/mL penicillin-streptomycin (Thermo Fisher Scientific, cat. 15140122), and 2.5% Matrigel (Corning Inc., Corning, NY, cat. 354248) for the first three passages. The two PDC lines 997537-175-T-J1-PDC and 415267-285-R-J2-PDC were cultured on uncoated flasks. The 857933-349-R-J2-PDC line was cultured in 6C/Colon 1B media containing advanced DMEM/F-12 (Thermo Fisher Scientific, cat. 12634028), 10 mM HEPES (Thermo Fisher Scientific, cat. 15630080), 1X GlutaMAX supplement (Thermo Fisher Scientific, cat. 35050061), 0.1 mg/mL primocin (InvivoGen, San Diego, CA, cat. ant-pm-2), 10% defined fetal bovine serum, heat inactivated (HyClone Laboratories Inc., Logan, UT, cat. SH30070.03HI), 50% L-WRN conditioned media (ATCC, cat. CRL-3276), 1.25 mM N-Acetyl-L-cysteine (Sigma-Aldrich, cat. A9165), 10 mM nicotinamide (Sigma-Aldrich, cat. N0636), 1X B-27 supplement (Thermo Fisher Scientific, cat. 17504044), 1X N-2 supplement (Thermo Fisher Scientific, cat. […]

[1] = second compound 0.0316 µM, first compound 0.00316 µM
[2] = second compound 0.0316 µM, first compound 0.01 µM
[3] = second compound 0.0316 µM, first compound 0.0316 µM
[4] = second compound 0.0316 µM, first compound 0.1 µM
[5] = second compound 0.1 µM, first compound 0.00316 µM
[6] = second compound 0.1 µM, first compound 0.01 µM
[7] = second compound 0.1 µM, first compound 0.0316 µM
[8] = second compound 0.1 µM, first compound 0.1 µM
[9] = second compound 0.316 µM, first compound 0.00316 µM
[10] = second compound 0.316 µM, first compound 0.01 µM
[11] = second compound 0.316 µM, first compound 0.0316 µM
[12] = second compound 0.316 µM, first compound 0.1 µM
[13] = second compound 1 µM, first compound 0.00316 µM
[14] = second compound 1 µM, first compound 0.01 µM
[15] = second compound 1 µM, first compound 0.0316 µM
[16] = second compound 1 µM, first compound 0.1 µM
[17] = second compound 3.16 µM, first compound 0.00316 µM
[18] = second compound 3.16 µM, first compound 0.01 µM
[19] = second compound 3.16 µM, first compound 0.0316 µM
[20] = second compound 3.16 µM, first compound 0.1 µM
[21] = second compound 10 µM, first compound 0.00316 µM
[22] = second compound 10 µM, first compound 0.01 µM
[23] = second compound 10 µM, first compound 0.0316 µM
[24] = second compound 10 µM, first compound 0.1 µM
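Note: spheroids exposed to compounds for seven days before readout.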

CC[C@@]1(O)C(=O)OCc2c1cc1n(c2=O)Cc2cc3c(CN(C)C)c(O)ccc3nc2-1 + COC1C(OC(N)=O)C(O)C(Oc2ccc3c(O)c(NC(=O)c4ccc(O)c(CC=C(C)C)c4)c(=O)oc3c2C)OC1(C)C
inactive: viability, T/C (second compound 0.0316 µM, first compound 0.000316 µM) 110% | viability, T/C (second compound 0.0316 µM, first compound 0.001 µM) 98.5% | viability, T/C [1] 94.7% | viability, T/C [2] 89.1% | viability, T/C [3] 67.4% | viability, T/C [4] 65.2% | viability, T/C (second compound 0.1 µM, first compound 0.000316 µM) 108% | viability, T/C (second compound 0.1 µM, first compound 0.001 µM) 110% | viability, T/C [5] 91.7% | viability, T/C [6] 85.8% | viability, T/C [7] 55.2% | viability, T/C [8] 60.6% | viability, T/C (second compound 0.316 µM, first compound 0.000316 µM) 95.9% | viability, T/C (second compound 0.316 µM, first compound 0.001 µM) 101% | viability, T/C [9] 87.1% | viability, T/C [10] 81.6% | viability, T/C [11] 58% | viability, T/C [12] 65% | viability, T/C (second compound 1 µM, first compound 0.000316 µM) 94.9% | viability, T/C (second compound 1 µM, first compound 0.001 µM) 96.8% | viability, T/C [13] 89.7% | viability, T/C [14] 82.3% | viability, T/C [15] 57.3% | viability, T/C [16] 61.7% | viability, T/C (second compound 3.16 µM, first compound 0.000316 µM) 107% | viability, T/C (second compound 3.16 µM, first compound 0.001 µM) 89.6% | viability, T/C [17] 93.4% | viability, T/C [18] 78% | viability, T/C [19] 65.2% | viability, T/C [20] 57.1% | viability, T/C (second compound 10 µM, first compound 0.000316 µM) 104% | viability, T/C (second compound 10 µM, first compound 0.001 µM) 90.9% | viability, T/C [21] 95.3% | viability, T/C [22] 88% | viability, T/C [23] 65.6% | viability, T/C [24] 64.9%
> 100 nM: IC50 (second compound 0.0316 µM) | IC50 (second compound 0.1 µM) | IC50 (second compound 0.316 µM) | IC50 (second compound 1 µM) | IC50 (second compound 3.16 µM) | IC50 (second compound 10 µM)

CCc1c2c(nc3ccc(O)cc13)-c1cc3c(c(=O)n1C2)COC(=O)[C@]3(O)CC + COC1C(OC(N)=O)C(O)C(Oc2ccc3c(O)c(NC(=O)c4ccc(O)c(CC=C(C)C)c4)c(=O)oc3c2C)OC1(C)C
104 nM: IC50 (second compound 0.1 µM)
78.4 nM: IC50 (second compound 1 µM)
99.5 nM: IC50 (second compound 10 µM)
108 nM: IC50 (second compound 3.16 µM)
inactive: viability, T/C [1] 63.7% | viability, T/C [2] 57.6% | viability, T/C [3] 67.5% | viability, T/C [4] 47.6% | viability, T/C (second compound 0.0316 µM, first compound 0.316 µM) 33.5% | viability, T/C (second compound 0.0316 µM, first compound 1 µM) 25.2% | viability, T/C [5] 58.6% | viability, T/C [6] 59.3% | viability, T/C [7] 59.9% | viability, T/C [8] 49.7% | viability, T/C (second compound 0.1 µM, first compound 0.316 µM) 33.6% | viability, T/C (second compound 0.1 µM, first compound 1 µM) 20.7% | viability, T/C [9] 70.1% | viability, T/C [10] 62.3% | viability, T/C [11] 55.1% | viability, T/C [12] 49.1% | viability, T/C (second compound 0.316 µM, first compound 0.316 µM) 31.6% | viability, T/C (second compound 0.316 µM, first compound 1 µM) 29.7% | viability, T/C [13] 68.7% | viability, T/C [14] 59.2% | viability, T/C [15] 61.4% | viability, T/C [16] 46.9% | viability, T/C (second compound 1 µM, first compound 0.316 µM) 33.6% | viability, T/C (second compound 1 µM, first compound 1 µM) 21.1% | viability, T/C [17] 66.8% | viability, T/C [18] 58% | viability, T/C [19] 60.2% | viability, T/C [20] 51.8% | viability, T/C (second compound 3.16 µM, first compound 0.316 µM) 35% | viability, T/C (second compound 3.16 µM, first compound 1 µM) 21.1% | viability, T/C [21] 71% | viability, T/C [22] 56% | viability, T/C [23] 63.3% | viability, T/C [24] 46.2% | viability, T/C (second compound 10 µM, first compound 0.316 µM) 42% | viability, T/C (second compound 10 µM, first compound 1 µM) 21.7%
98 nM: IC50 (second compound 0.0316 µM)
60.2 nM: IC50 (second compound 0.316 µM)
